We go through 22 molecules from patent US7855297B2, “Amide derivatives and medicinal use thereof” (Mitsubishi Tanabe Pharma Corporation, priority 2000, dated 2010).

Where a name gives a salt, the structure may show the parent alone.

`CC(C)c1ccc(N(Cc2ccc(N(C)C)cc2)C(=O)C2CCCc3c(O)cccc32)cc1` (stereo not shown) [Example 17, N-[(4-dimethylaminophenyl)methyl]-5-hydroxy-N-(4-isopropylphenyl)-1,2,3,4-tetrahydronaphthalene-1-carboxamide] displayed a melting point of 200 to 202 °C.

Molecule `COc1ccc(CN(C(=O)C2CCCc3ccc(OC)cc32)c2ccc(C(C)C)cc2)nc1` (stereo not shown) (as salt: hydrochloride) (hydrate or solvate) [Example 56, N-(4-isopropylphenyl)-N-[(5-methoxypyridin-2-yl)methyl]-7-methoxy-1,2,3,4-tetrahydronaphthalene-1-carboxamide hydrochloride ½ hydrate] registered a melting point of 108 to 110 °C.

In the case of `CC(C)COc1ccc(Br)cc1N(Cc1ccc(N(C)C)cc1)C(=O)C1CCCc2ccccc21` (stereo not shown) [Example 5, N-(5-bromo-2-isobutoxyphenyl)-N-[(4-dimethylaminophenyl)methyl]-1,2,3,4-tetrahydronaphthalene-1-carboxamide], the melting point lay within 176 to 178 °C.

As to `CC(C)c1ccc(N(Cc2ccc(N(C)C)cc2)C(=O)C2CCCc3c(OCCN(C)C)cccc32)cc1` (stereo not shown) (as salt: oxalate) (hydrate or solvate) [Example 113, 5-[2-(dimethylamino)ethoxy]-N-[(4-dimethylaminophenyl)methyl]-N-(4-isopropylphenyl)-1,2,3,4-tetrahydronaphthalene-1-carboxamide oxalate ¼ hydrate], the melting point stood at 155.7 °C.

`COc1ccc2c(c1)C(C(=O)N(Cc1ccc(N)cc1)c1ccc(C(C)C)cc1)CCC2` (stereo not shown) [Example 167, N-[(4-aminophenyl)methyl]-N-(4-isopropylphenyl)-7-methoxy-1,2,3,4-tetrahydronaphthalene-1-carboxamide] gave a melting point of 115 to 117 °C.

In the case of `CC(C)c1ccc(N(Cc2cnn(CC(F)(F)F)c2)C(=O)C2CCCc3c(O)cccc32)cn1` (stereo not shown) [Example 435, 5-hydroxy-N-(6-isopropylpyridin-3-yl)-N-{[1-(2,2,2-trifluoroethyl)pyrazol-4-yl]methyl}-1,2,3,4-tetrahydronaphthalene-1-carboxamide], the melting point is 127.7 °C.

Turning to `COc1ccc2c(c1)C(C(=O)N(Cc1ccc(CO)cc1)c1ccc(C(C)C)cc1)CCC2` (stereo not shown) [Example 95, N-{[4-(hydroxymethyl)phenyl]methyl}-N-(4-isopropylphenyl)-7-methoxy-1,2,3,4-tetrahydronaphthalene-1-carboxamide], the melting point amounted to 143.2 °C.

The molecule `COc1ccc(N(Cc2ccc(N(C)C)cc2)C(=O)C2CCCc3ccc(F)cc32)cc1` (stereo not shown) (as salt: hydrochloride) (hydrate or solvate) [Example 128, N-[(4-dimethylaminophenyl)methyl]-7-fluoro-N-(4-methoxyphenyl)-1,2,3,4-tetrahydronaphthalene-1-carboxamide hydrochloride ½ hydrate] came in with a melting point of 125.4 °C.

Turning to `COc1ccc2c(c1)C(C(=O)N(Cc1ccc(N(C)C)cc1)c1ccc(Br)cc1)CCC2` (stereo not shown) (as salt: hydrochloride) [Example 200, N-(4-bromophenyl)-N-[(4-dimethylaminophenyl)methyl]-7-methoxy-1,2,3,4-tetrahydronaphthalene-1-carboxamide hydrochloride], the melting point fell in the range of 104 to 113 °C.

Turning to `CC(C)c1ccc(N(Cc2cnn(CCO)c2)C(=O)C2CCCc3c(O)cccc32)cc1` (stereo not shown) [Example 362, 5-hydroxy-N-{[1-(2-hydroxyethyl)pyrazol-4-yl]methyl}-N-(4-isopropylphenyl)-1,2,3,4-tetrahydronaphthalene-1-carboxamide], the melting point is 110 to 114 °C.

Take `CC(C)c1ccc(N(Cc2ccc(N(C)C)cc2)C(=O)C2CCCc3cc(OCCN(C)C)ccc32)cc1` (stereo not shown) (hydrate or solvate) [Example 106, 6-[2-(dimethylamino)ethoxy]-N-[(4-dimethylaminophenyl)methyl]-N-(4-isopropylphenyl)-1,2,3,4-tetrahydronaphthalene-1-carboxamide ⅕ hydrate]: the melting point came out at 132.6 °C.

With `COc1ccc(CN(C(=O)C2CCCc3c(O)cccc32)c2ccc(C(C)C)nc2)c(OC)n1` (stereo not shown) [Example 133, N-[(2,6-dimethoxypyridin-3-yl)methyl]-5-hydroxy-N-(6-isopropylpyridin-3-yl)-1,2,3,4-tetrahydronaphthalene-1-carboxamide], the melting point came out at 164 °C.

`CC(C)c1ccc(N(Cc2cnn(CCN(C)C)c2)C(=O)C2CCCc3c(O)cccc32)cc1` (stereo not shown) [Example 355, N-({1-[2-(dimethylamino)ethyl]pyrazol-4-yl}methyl)-5-hydroxy-N-(4-isopropylphenyl)-1,2,3,4-tetrahydronaphthalene-1-carboxamide]: the melting point was 92 °C.

Consider `CCc1ccc(N(Cc2ccc(N(C)C)cc2)C(=O)C2CCCc3ccccc32)cc1` (stereo not shown) [Example 1, N-[(4-dimethylaminophenyl)methyl]-N-(4-ethylphenyl)-1,2,3,4-tetrahydronaphthalene-1-carboxamide], for which the melting point fell in the range of 109 to 110 °C.

Take `CC(C)c1ccc(N(Cc2ccc(N(C)C)cc2)C(=S)C2CCCc3ccccc32)cc1` (stereo not shown) [Example 54, N-[(4-dimethylaminophenyl)methyl]-N-(4-isopropylphenyl)-1,2,3,4-tetrahydronaphthalene-1-carbothioamide]: the melting point lay in the range of 123 to 125 °C.

Consider `COc1ccc2c(c1)C(C(=O)N(Cc1ccc(OC)nc1)c1ccc(C(C)C)cc1)CCC2` (stereo not shown) (as salt: hydrochloride) [Example 46, N-(4-isopropylphenyl)-N-[(6-methoxypyridin-3-yl)methyl]-7-methoxy-1,2,3,4-tetrahydronaphthalene-1-carboxamide monohydrochloride], for which the melting point is 114 to 117 °C.

`CC(C)c1ccc(N(Cc2ccc(N(C)C)cc2)C(=O)C2CCCc3cc(O)ccc32)cc1` (stereo not shown) [Example 37, N-[(4-dimethylaminophenyl)methyl]-6-hydroxy-N-(4-isopropylphenyl)-1,2,3,4-tetrahydronaphthalene-1-carboxamide] registered a melting point of 169 to 171 °C.

Take `CC(C)c1ccc(N(Cc2ccc(N(C)C)cc2)C(=O)C2CCCc3ccc(O)cc32)cc1` (stereo not shown) [Example 20, N-[(4-dimethylaminophenyl)methyl]-7-hydroxy-N-(4-isopropylphenyl)-1,2,3,4-tetrahydronaphthalene-1-carboxamide]: the melting point fell in the range of 214 to 217 °C.

`CCn1cc(CN(C(=O)C2CCCc3c(OCCCN(C)C)cccc32)c2ccc(C(C)C)cc2)cn1` (stereo not shown) (as salt: oxalate) [Example 267, 5-[3-(dimethylamino)propoxy]-N-[(1-ethylpyrazol-4-yl)methyl]-N-(4-isopropylphenyl)-1,2,3,4-tetrahydronaphthalene-1-carboxamide 3/2 oxalate] gave a melting point of 142.6 °C.

In the case of `COc1ccc2c(c1)C(C(=O)N(Cc1ccc(S(C)(=O)=O)cc1)c1ccc(C(C)C)cc1)CCC2` (stereo not shown) [Example 35, N-(4-isopropylphenyl)-N-[(4-methylsulfonylphenyl)methyl]-7-methoxy-1,2,3,4-tetrahydronaphthalene-1-carboxamide], the melting point fell in the range of 131 to 132 °C.

On to `COc1ccc2c(c1)C(C(=O)N(Cc1ccc(N(C)C)nc1)c1ccc(C(C)C)cc1)CCC2` (stereo not shown) (as salt: hydrochloride) (hydrate or solvate) [Example 55, N-[(6-dimethylaminopyridin-3-yl)methyl]-N-(4-isopropylphenyl)-7-methoxy-1,2,3,4-tetrahydronaphthalene-1-carboxamide hydrochloride ½ hydrate], for which the melting point lay within 158 to 160 °C.

In turn, `CC(C)c1ccc(N(Cc2ccc(N(C)C)cc2)C(=O)C2CCCc3ccc(F)cc32)cc1` (stereo not shown) (as salt: hydrochloride) [Example 127, N-[(4-dimethylaminophenyl)methyl]-7-fluoro-N-(4-isopropylphenyl)-1,2,3,4-tetrahydronaphthalene-1-carboxamide hydrochloride] had a melting point of 165.6 °C.

One may read the melting point as the temperature of the solid-liquid transition.
